{"source": "patent US20070254026A1", "about": "“SOFTGEL CAPSULES” (FORBES MEDI-TECH INC., priority 2006, published 2007)", "origin": "cited, not measured here", "tested_on": "benign prostate hypertrophy", "details": "Berges.2000; Coleman.2002"}
{"smiles": "CC[C@H](CC[C@@H](C)[C@H]1CC[C@H]2[C@@H]3CC=C4C[C@@H](O)CC[C@]4(C)[C@H]3CC[C@]12C)C(C)C", "note": "[sitosterol, β-sitosterol]", "values": [{"measurement": "effective dose reducing symptoms of benign prostate hypertrophy", "value": "20 to 60", "unit": "mg per day"}]}
